Measured values from patent US10039713B1, “Drug-loaded ganglioside micelle and the preparation method and use thereof” (Chongqing University, priority 2017, dated 2018).

Test system: blood brain barrier
Assay: Evaluation on intracranial blood brain barrier penetrating effect of a GM1 micelle (animal living body fluorescence imaging)
Format: in vivo
Details: healthy mice, intravenous injection of tails, FIG. 2
Description: According to the preparation method of DOX-GM1 in the example 1, a fluorescent dye DiR-GM1 mixed micelle was prepared according to the same method. DiR-GM1 micelle and free-DiR were intravenous injected of tails of the healthy mice. The distribution and strength of the DiR fluorescence in tissues are observed and recorded by the animal living body imagery at different time points.

CCCCCCCCCCCCCCCCCCN1/C(=C/C=C/C=C/C=C/C2=[N+](CCCCCCCCCCCCCCCCCC)c3ccccc3C2(C)C)C(C)(C)c2ccccc21.[I-] [DiR solution]
entry into the brain / blood-brain barrier penetration: cannot enter the brain | fluorescence distribution (DiR) in tissues (in-vivo imaging at different time points): concentrated in the liver
